Results reported in the supplement of paper PMC11061612.

Legend:
Paclitaxel = compound: CC(=O)O[C@H]1C(=O)[C@@]2(C)[C@H]([C@H](OC(=O)c3ccccc3)[C@]3(O)C[C@H](OC(=O)[C@H](O)[C@@H](NC(=O)c4ccccc4)c4ccccc4)C(C)=C1C3(C)C)[C@]1(OC(C)=O)CO[C@@H]1C[C@@H]2O [Paclitaxel]; settings: max 3 µM
Method in brief: (§1)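 Viability was measured with CellTiter-Glo 2.0 luminescence after 72 hours of dosing at a final DMSO of typically 0.2%, and scaled between blank-well and DMSO-well means. Beforehand, cancer cell lines sat 24 hours at 37°C and 5% CO2 in 1536-well plates in 7.5 μl DMEM/F12 or RPMI with 10% FBS. A non-linear mixed effects model fitted two-parameter logistic curves to the dose responses. The single-agent IC50 comes from these fits.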

Doxorubicin = compound: COc1cccc2c1C(=O)c1c(O)c3c(c(O)c1C2=O)C[C@@](O)(C(=O)CO)C[C@@H]3O[C@H]1C[C@H](N)[C@H](O)[C@H](C)O1 [Doxorubicin]; settings: max 1 µM
Method in brief: as §1

5-Fluorouracil = compound: O=c1[nH]cc(F)c(=O)[nH]1 [5-Fluorouracil]; settings: max 20 µM
Method in brief: as §1

AZD6738 = compound: C[C@@H]1COCCN1C2=NC(=NC(=C2)C3(CC3)[S@](=N)(=O)C)C4=C5C=CNC5=NC=C4 [AZD6738]; settings: max 10 µM
Method in brief: as §1

AZD0156 = compound: CN(C)CCCOc1ccc(-c2ccc3ncc4c(c3c2)n(C2CCOCC2)c(=O)n4C)cn1 [AZD0156]; settings: max 3 µM
Method in brief: as §1

AZD5153 = compound: COc1nnc2ccc(N3CCC(c4ccc(OCCN5CCN(C)C(=O)[C@H]5C)cc4)CC3)nn12 [AZD5153]; settings: max 1 µM
Method in brief: as §1

AZD5991 = compound: Cc1c2c(nn1C)CSCc1cc(n(C)n1)CSc1cc(c3ccccc3c1)OCCCc1c(C(=O)O)n(C)c3c-2c(Cl)ccc13 [AZD5991]; settings: max 1 µM
Method in brief: as §1

Crizotinib = compound: C[C@@H](Oc1cc(-c2cnn(C3CCNCC3)c2)cnc1N)c1c(Cl)ccc(F)c1Cl [Crizotinib]; settings: max 10 µM
Method in brief: as §1

Gefitinib = compound: COc1cc2ncnc(Nc3ccc(F)c(Cl)c3)c2cc1OCCCN1CCOCC1 [Gefitinib]; settings: max 10 µM
Method in brief: as §1

Venetoclax = compound: CC1(C)CCC(CN2CCN(c3ccc(C(=O)NS(=O)(=O)c4ccc(NCC5CCOCC5)c([N+](=O)[O-])c4)c(Oc4cnc5[nH]ccc5c4)c3)CC2)=C(c2ccc(Cl)cc2)C1 [Venetoclax]; settings: max 1 µM
Method in brief: as §1

[1] = compound: O=C(Nc1ccc2[nH]nc(-c3ccncc3)c2c1)[C@@H]1CCN(CC(=O)N2CCN(c3ccc(-c4ncccn4)cc3)CC2)C1; settings: max 5 µM
Method in brief: as §1

AZD5363 = compound: C1CN(CCC1(C(=O)N[C@@H](CCO)C2=CC=C(C=C2)Cl)N)C3=NC=NC4=C3C=CN4 [AZD5363]; settings: max 10 µM
Method in brief: as §1

AZD2811 = compound: CCN(CCO)CCCOc1ccc2c(Nc3cc(CC(=O)Nc4cccc(F)c4)[nH]n3)ncnc2c1 [AZD2811]; settings: max 1 µM
Method in brief: as §1

Alisertib = compound: COc1cc(Nc2ncc3c(n2)-c2ccc(Cl)cc2C(c2c(F)cccc2OC)=NC3)ccc1C(=O)O [Alisertib]; settings: max 10 µM
Method in brief: as §1

AZD7648 = compound: Cc1cc2ncnn2cc1Nc1ncc2c(n1)n(C1CCOCC1)c(=O)n2C [AZD7648]; settings: max 10 µM
Method in brief: as §1

Prexasertib = compound: COc1cccc(OCCCN)c1-c1cc(Nc2cnc(C#N)cn2)n[nH]1 [Prexasertib]; settings: max 1 µM
Method in brief: as §1

Gemcitabine = compound: Nc1ccn([C@@H]2O[C@H](CO)[C@@H](O)C2(F)F)c(=O)n1 [Gemcitabine]; settings: max 0.3 µM
Method in brief: as §1

SRA737 = compound: N#Cc1cnc(Nc2cc(NC[C@H]3CNCCO3)c(C(F)(F)F)cn2)cn1 [SRA737]; settings: max 10 µM
Method in brief: as §1

AZD1390 = compound: CC(C)n1c(=O)n(C)c2cnc3cc(F)c(-c4ccc(OCCCN5CCCCC5)nc4)cc3c21 [AZD1390]; settings: max 0.3 µM
Method in brief: as §1

Etoposide = compound: COc1cc([C@@H]2c3cc4c(cc3[C@@H](O[C@@H]3O[C@@H]5CO[C@@H](C)O[C@H]5[C@H](O)[C@H]3O)[C@H]3COC(=O)[C@H]23)OCO4)cc(OC)c1O [Etoposide]; settings: max 10 µM
Method in brief: as §1

Selumetinib = compound: Cn1cnc2c(F)c(Nc3ccc(Br)cc3Cl)c(C(=O)NOCCO)cc21 [Selumetinib]; settings: max 10 µM
Method in brief: as §1

Olaparib = compound: O=C(c1cc(Cc2n[nH]c(=O)c3ccccc23)ccc1F)N1CCN(C(=O)C2CC2)CC1 [Olaparib]; settings: max 10 µM
Method in brief: as §1

AZD8186 = compound: C[C@@H](Nc1cc(F)cc(F)c1)c1cc(C(=O)N(C)C)cc2c(=O)cc(N3CCOCC3)oc12 [AZD8186]; settings: max 10 µM
Method in brief: as §1

SN-38 = compound: CCc1c2c(nc3ccc(O)cc13)-c1cc3c(c(=O)n1C2)COC(=O)[C@]3(O)CC [SN-38]; settings: max 0.3 µM
Method in brief: as §1

Dasatinib = compound: CC1=C(C(=CC=C1)Cl)NC(=O)C2=CN=C(S2)NC3=CC(=NC(=N3)C)N4CCN(CC4)CCO [Dasatinib]; settings: max 2 µM
Method in brief: as §1

MK-2206 = compound: NC1(c2ccc(-c3nc4ccn5c(=O)[nH]nc5c4cc3-c3ccccc3)cc2)CCC1 [MK-2206]; settings: max 10 µM
Method in brief: as §1

Palbociclib = compound: CC(=O)c1c(C)c2cnc(Nc3ccc(N4CCNCC4)cn3)nc2n(C2CCCC2)c1=O [Palbociclib]; settings: max 10 µM
Method in brief: as §1

Carboplatin = compound: C1CC(C1)(C(=O)[O-])C(=O)[O-].N.N.[Pt+2] [Carboplatin]; settings: max 10 µM
Method in brief: as §1

Trametinib = compound: CC(=O)Nc1cccc(-n2c(=O)n(C3CC3)c(=O)c3c(Nc4ccc(I)cc4F)n(C)c(=O)c(C)c32)c1 [Trametinib]; settings: max 1 µM
Method in brief: as §1

Savolitinib = compound: C[C@@H](c1ccc2nccn2c1)n1nnc2ncc(-c3cnn(C)c3)nc21 [Savolitinib]; settings: max 1 µM
Method in brief: as §1

Lapatinib = compound: CS(=O)(=O)CCNCc1ccc(-c2ccc3ncnc(Nc4ccc(OCc5cccc(F)c5)c(Cl)c4)c3c2)o1 [Lapatinib]; settings: max 10 µM
Method in brief: as §1

AZD1775 = compound: C=CCn1c(=O)c2cnc(Nc3ccc(N4CCN(C)CC4)cc3)nc2n1-c1cccc(C(C)(C)O)n1 [AZD1775]; settings: max 3 µM
Method in brief: as §1

SG3199 = compound: CC1=CN2[C@@H](C1)C=NC3=CC(=C(C=C3C2=O)OC)OCCCCCOC4=C(C=C5C(=C4)N=C[C@@H]6CC(=CN6C5=O)C)OC [SG3199]; settings: max 0.001 µM
Method in brief: as §1

Taselisib = compound: Cc1nc(-c2cn3c(n2)-c2ccc(-c4cnn(C(C)(C)C(N)=O)c4)cc2OCC3)n(C(C)C)n1 [Taselisib]; settings: max 10 µM
Method in brief: as §1

AZD4320 = compound: CN(CC[C@H](CSC1=CC=CC=C1)NC2=C(C=C(C=C2)S(=O)(=O)NC(=O)C3=CC=C(C=C3)N4CCC(CC4)[C@H](C5=CC=CC=C5C6=CC=C(C=C6)Cl)O)S(=O)(=O)C(F)(F)F)CCO [AZD4320]; settings: max 1 µM
Method in brief: as §1

Cell Line | IC50, cell viability 72 h (Paclitaxel) [nM] | IC50, cell viability 72 h (Doxorubicin) [nM] | IC50, cell viability 72 h (5-Fluorouracil) [nM] | IC50, cell viability 72 h (AZD6738) [nM] | IC50, cell viability 72 h (AZD0156) [nM] | IC50, cell viability 72 h (AZD5153) [nM] | IC50, cell viability 72 h (AZD5991) [nM] | IC50, cell viability 72 h (Crizotinib) [nM] | IC50, cell viability 72 h (Gefitinib) [nM] | IC50, cell viability 72 h (Venetoclax) [nM] | IC50, cell viability 72 h [1] [nM] | IC50, cell viability 72 h (AZD5363) [nM] | IC50, cell viability 72 h (AZD2811) [nM] | IC50, cell viability 72 h (Alisertib) [nM] | IC50, cell viability 72 h (AZD7648) [nM] | IC50, cell viability 72 h (Prexasertib) [nM] | IC50, cell viability 72 h (Gemcitabine) [nM] | IC50, cell viability 72 h (SRA737) [nM] | IC50, cell viability 72 h (AZD1390) [nM] | IC50, cell viability 72 h (Etoposide) [nM] | IC50, cell viability 72 h (Selumetinib) [nM] | IC50, cell viability 72 h (Olaparib) [nM] | IC50, cell viability 72 h (AZD8186) [nM] | IC50, cell viability 72 h (SN-38) [nM] | IC50, cell viability 72 h (Dasatinib) [nM] | IC50, cell viability 72 h (MK-2206) [nM] | IC50, cell viability 72 h (Palbociclib) [nM] | IC50, cell viability 72 h (Carboplatin) [nM] | IC50, cell viability 72 h (Trametinib) [nM] | IC50, cell viability 72 h (Savolitinib) [nM] | IC50, cell viability 72 h (Lapatinib) [nM] | IC50, cell viability 72 h (AZD1775) [nM] | IC50, cell viability 72 h (SG3199) [nM] | IC50, cell viability 72 h (Taselisib) [nM] | IC50, cell viability 72 h (AZD4320) [nM]
EFO-21 (Ovarian Carcinoma) | > 3000 | > 1000 | > 20000 | > 10000 | > 3000 | > 1000 | > 1000 | > 10000 | > 10000 | > 1000 | > 5000 | > 10000 | > 1000 | > 10000 | > 10000 | 101 | > 300 | > 10000 | > 300 | > 10000 | > 10000 | > 10000 | > 10000 | > 300 | > 2000 | > 10000 | > 10000 | > 10000 | > 1000 | > 1000 | > 10000 | > 3000 | > 1 | > 10000 | > 1000
HAL-01 (B-Lymphoblastic Leukemia) | 335 | 496 | > 20000 | 652 | > 3000 | 91.8 | > 1000 | 2840 | > 10000 | 109 | > 5000 | > 10000 | > 1000 | 109 | > 10000 | 16.6 | 2.47 | 528 | > 300 | 2700 | > 10000 | > 10000 | 1130 | 5.69 | > 2000 | 1000 | 1890 | > 10000 | > 1000 | > 1000 | > 10000 | 327 | > 1 | 360 | 496
KGN (Other Solid Carcinomas) | 12.8 | 95 | > 20000 | 2750 | > 3000 | 153 | > 1000 | 4340 | > 10000 | > 1000 | > 5000 | > 10000 | 451 | 1590 | > 10000 | 117 | 6.01 | > 10000 | > 300 | 2000 | > 10000 | > 10000 | 3860 | 8.95 | 167 | > 10000 | 2850 | > 10000 | 999 | > 1000 | > 10000 | 490 | > 1 | 2320 | > 1000
